Measured values taken from patent publication US12642270B2, “Substituted thiophene carboxamides, thiophene carboxylic acids and derivatives thereof” (Bayer Aktiengesellschaft, priority 2019, dated 2026).

Assay: Log P by HPLC on reversed phase columns (EEC directive 79/831 Annex V.A8)
Format: physicochemical
Conditions: method [a]
Procedure: In the above tables, measurement of Log P values was performed according to EEC directive 79/831 Annex V.A8 by HPLC (High Performance Liquid Chromatography) on reversed phase columns with the following methods: • ^[a] Log P value is determined by measurement of LC-UV, in an acidic range, with 0.1% formic acid in water and acetonitrile as eluent (linear gradient from 10% acetonitrile to 95% acetonitrile). • ^[b] Log P value is determined by measurement of LC-UV, in a neutral range, with 0.001 molar ammonium acetate solution in water and acetonitrile as eluent (linear gradient from 10% acetonitrile to 95% acetonitrile). • ^[c] Log P value is determined by measurement of LC-UV, in an acidic range, with 0.1% phosphoric acid and acetonitrile as eluent (linear gradient from 10% acetonitrile to 95% acetonitrile). If more than one Log P value is available within the same method, all the values are given and separated by “+”. Calibration was done with straight-chain alkan2-ones (with 3 to 16 carbon atoms) with known Log P values (measurement of Log P values using retention times with linear interpolation between successive alkanones). Lambda-max-values were determined using UV-spectra from 200 nm to 400 nm and the peak values of the chromatographic signals.

LogP	Compound
4.11^[a]	CCOC(=O)C(Cc1c[nH]c2ccccc12)NC(=O)c1sc(Br)c(Cl)c1C (stereo not drawn) [1.0132]
3.41^[a]	CCOC(=O)C(C)NC(=O)c1sc(Br)c(Br)c1F (stereo not drawn) [1.0133]
1.39^[a]	COC(=O)C(Cc1c[nH]cn1)NC(=O)c1sc(Br)c(Br)c1F (stereo not drawn) [1.0134]
3.46^[a]	CCOC(=O)C(COC)NC(=O)c1sc(Br)c(Br)c1F (stereo not drawn) [1.0135]
3.31^[a]	CCOC(=O)C(Cc1ccc(O)cc1)NC(=O)c1sc(Br)c(Br)c1F (stereo not drawn) [1.0136]
4.08^[a]	CCOC(=O)C(Cc1c[nH]c2ccccc12)NC(=O)c1sc(Br)c(Br)c1F (stereo not drawn) [1.0137]
3.42^[a]	CCOC(=O)C(COC)NC(=O)c1sc(Br)c(Cl)c1C (stereo not drawn) [1.0138]
3.96^[a]	CCSC(=O)C1(NC(=O)c2sc(Br)c(Br)c2I)CC1 [1.0139]
3.35^[a]	CCOC(=O)C(C)NC(=O)c1sc(Br)c(Cl)c1C (stereo not drawn) [1.0140]
3.30^[a]	CCOC(=O)CNC(=O)c1sc(Br)c(Br)c1Cl [1.0142]
3.53^[a]	CCOC(=O)CCNC(=O)c1sc(Br)c(Br)c1Cl [1.0143]
4.27^[a]	CCOC(=O)C1(NC(=O)c2sc(Br)c(Br)c2Cl)CCC1 [1.0144]
4.92^[a]	CCOC(=O)C(NC(=O)c1sc(Br)c(Br)c1Cl)C(C)C (stereo not drawn) [1.0145]
3.62^[a]	COC(=O)C(CC(F)F)NC(=O)c1sc(Br)c(Br)c1Cl (stereo not drawn) [1.0146]
5.19^[a]	CCOC(=O)C(CC(C)C)NC(=O)c1sc(Br)c(Br)c1Cl (stereo not drawn) [1.0147]
4.46^[a]	CCOC(=O)C(CCSC)NC(=O)c1sc(Br)c(Br)c1Cl (stereo not drawn) [1.0148]
5.00^[a]	CCOC(=O)C(Cc1ccccc1)NC(=O)c1sc(Br)c(Br)c1Cl (stereo not drawn) [1.0149]
3.99^[a]	COC(=O)C1(NC(=S)c2sc(Br)c(Br)c2I)CC1 [1.0150]
4.47^[a]	CCOC(=O)[C@@H](NC(=O)c1sc(Br)c(Br)c1F)C(C)C [1.0151]
4.47^[a]	CCOC(=O)[C@H](NC(=O)c1sc(Br)c(Br)c1F)C(C)C [1.0152]
4.55^[a]	CCOC(=O)[C@@H](Cc1ccccc1)NC(=O)c1sc(Br)c(Br)c1F [1.0153]
4.55^[a]	CCOC(=O)[C@H](Cc1ccccc1)NC(=O)c1sc(Br)c(Br)c1F [1.0154]
4.12^[a]	COC(=O)[C@H](Cc1ccccc1)NC(=O)c1sc(Br)c(Br)c1F [1.0155]
4.78^[a]	CCOC(=O)[C@@H](CC(C)C)NC(=O)c1sc(Br)c(Br)c1F [1.0156]
3.62^[a]	COC(=O)[C@@H](CCSC)NC(=O)c1sc(Br)c(Br)c1F [1.0158]
3.62^[a]	COC(=O)[C@H](CCSC)NC(=O)c1sc(Br)c(Br)c1F [1.0159]

LogP	Compound
1.94^[a]	COC(=O)[C@H](CC(N)=O)NC(=O)c1sc(Br)c(Br)c1F [1.0160]
1.98^[a]	COC(=O)[C@@H](CC(N)=O)NC(=O)c1sc(Br)c(Br)c1F [1.0161]
2.48^[a]	COC(=O)C1(NC(=O)c2cc(Cl)c(Br)s2)CC1 [1.0162]
2.76^[a]	COC(=O)C1(NC(=O)c2sc(Br)c(Cl)c2C)CC1 [1.0163]
2.51^[a]	COC(=O)C1(NC(=O)c2cc(Br)c(Cl)s2)CC1 [1.0164]
2.80^[a]	COC(=O)C1(NC(=O)c2sc(Cl)c(Br)c2C)CC1 [1.0165]
3.78^[a]	CCOC(=O)C1(NC(=O)c2sc(Br)c(Br)c2F)CCC1 [1.0166]
3.09^[a]	CCOC(=O)CN(C)C(=O)c1sc(Br)c(Br)c1F [1.0167]
2.20^[a]	Cc1c(C(=O)NC2(C(=O)O)CC2)sc(Br)c1Cl [1.0168]
2.02^[a]	O=C(NC1(C(=O)O)CC1)c1cc(Br)c(Cl)s1 [1.0169]
2.21^[a]	Cc1c(C(=O)NC2(C(=O)O)CC2)sc(Cl)c1Br [1.0170]
4.39^[a]	CCOC(=O)C(C(C)C)N(C)C(=O)c1sc(Br)c(Br)c1F (stereo not drawn) [1.0171]
2.62^[a]	O=C(NC1(C(=O)O)CCC1)c1sc(Br)c(Br)c1F [1.0172]
3.09^[a]	O=C(O)C1(NC(=S)c2sc(Br)c(Br)c2I)CC1 [1.0173]
1.94^[a]	NC(=O)C1(NC(=O)c2sc(Br)c(Br)c2F)CC1 [1.0174]
4.47^[a]	CCOC(=O)C(NC(=O)c1sc(Br)c(Br)c1F)c1ccccc1 (stereo not drawn) [1.0175]
2.70^[a]	N#CCNC(=O)c1sc(Cl)c(Br)c1Cl [1.0176]
2.85^[a]	COC(=O)CNC(=O)c1sc(Cl)c(Br)c1Cl [1.0177]
3.37^[a]	CCOC(=O)CNC(=O)c1sc(Cl)c(Br)c1Cl [1.0178]
3.54^[a]	CCOC(=O)CCNC(=O)c1sc(Cl)c(Br)c1Cl [1.0179]
3.47^[a]	CCOC(=O)C1(NC(=O)c2sc(Cl)c(Br)c2Cl)CC1 [1.0180]
3.91^[a]	COC(=O)C(NC(=O)c1sc(Cl)c(Br)c1Cl)C1CC1 (stereo not drawn) [1.0181]
4.33^[a]	CCOC(=O)C1(NC(=O)c2sc(Cl)c(Br)c2Cl)CCC1 [1.0182]
4.97^[a]	CCOC(=O)C(NC(=O)c1sc(Cl)c(Br)c1Cl)C(C)C (stereo not drawn) [1.0183]
3.64^[a]	COC(=O)C(CC(F)F)NC(=O)c1sc(Cl)c(Br)c1Cl (stereo not drawn) [1.0184]
5.20^[a]	CCOC(=O)C(CC(C)C)NC(=O)c1sc(Cl)c(Br)c1Cl (stereo not drawn) [1.0185]

Same assay, conditions: method [a]; compounds of formula (I), Table 1.1

LogP	Compound
3.77^[a]	CCOC(=O)C1(NC(=O)c2sc(Br)c(I)c2C)CCC1 [1.0090]
4.37^[a]	CCOC(=O)C(NC(=O)c1sc(Br)c(I)c1C)C(C)C (stereo not drawn) [1.0091]
3.39^[a]	COC(=O)C(CC(F)F)NC(=O)c1sc(Br)c(I)c1C (stereo not drawn) [1.0092]
4.66^[a]	CCOC(=O)C(CC(C)C)NC(=O)c1sc(Br)c(I)c1C (stereo not drawn) [1.0093]
4.03^[a]	CCOC(=O)C(CCSC)NC(=O)c1sc(Br)c(I)c1C (stereo not drawn) [1.0094]
4.53^[a]	CCOC(=O)C(Cc1ccccc1)NC(=O)c1sc(Br)c(I)c1C (stereo not drawn) [1.0095]
3.02^[a]	CCOC(=O)CNC(=O)c1sc(I)c(Br)c1C [1.0096]
3.17^[a]	CCOC(=O)CCNC(=O)c1sc(I)c(Br)c1C [1.0097]
3.19^[a]	CCOC(=O)C1(NC(=O)c2sc(I)c(Br)c2C)CC1 [1.0098]
3.71^[a]	CCOC(=O)C1(NC(=O)c2sc(I)c(Br)c2C)CCC1 [1.0099]
4.30^[a]	CCOC(=O)C(NC(=O)c1sc(I)c(Br)c1C)C(C)C (stereo not drawn) [1.0100]
3.33^[a]	COC(=O)C(CC(F)F)NC(=O)c1sc(I)c(Br)c1C (stereo not drawn) [1.0101]
4.56^[a]	CCOC(=O)C(CC(C)C)NC(=O)c1sc(I)c(Br)c1C (stereo not drawn) [1.0102]
3.96^[a]	CCOC(=O)C(CCSC)NC(=O)c1sc(I)c(Br)c1C (stereo not drawn) [1.0103]
4.46^[a]	CCOC(=O)C(Cc1ccccc1)NC(=O)c1sc(I)c(Br)c1C (stereo not drawn) [1.0104]
2.58^[a]	Cc1c(C(=O)NCC#N)sc(Cl)c1Br [1.0105]
2.78^[a]	Cc1c(C(=O)NC2(C#N)CC2)sc(Cl)c1Br [1.0106]
4.53^[a]	Cc1c(C(=O)NC2(C#N)CCC2)sc(Cl)c1Br [1.0107]
3.63^[a]	Cc1c(C(=O)NC(C#N)C(C)C)sc(Cl)c1Br (stereo not drawn) [1.0108]
3.85^[a]	Cc1c(C(=O)NC(C#N)c2ccccc2)sc(Cl)c1Br (stereo not drawn) [1.0109]
3.99^[a]	Cc1c(C(=O)NC(C#N)Cc2ccccc2)sc(Cl)c1Br (stereo not drawn) [1.0110]

LogP	Compound
2.54^[a]	Cc1c(C(=O)NCC#N)sc(Br)c1Cl [1.0111]
2.75^[a]	Cc1c(C(=O)NC2(C#N)CC2)sc(Br)c1Cl [1.0112]
3.81^[a]	Cc1c(C(=O)NC(C#N)c2ccccc2)sc(Br)c1Cl (stereo not drawn) [1.0113]
3.92^[a]	Cc1c(C(=O)NC(C#N)Cc2ccccc2)sc(Br)c1Cl (stereo not drawn) [1.0114]
2.64^[a]	N#CC1(NC(=O)c2sc(Br)c(Br)c2F)CC1 [1.0115]
3.11^[a]	N#CC1(NC(=O)c2sc(Br)c(Br)c2F)CCC1 [1.0116]
3.65^[a]	N#CC(NC(=O)c1sc(Br)c(Br)c1F)c1ccccc1 (stereo not drawn) [1.0117]
3.81^[a]	N#CC(Cc1ccccc1)NC(=O)c1sc(Br)c(Br)c1F (stereo not drawn) [1.0118]
3.39^[a]	COC(=O)C(NC(=O)c1sc(Cl)c(Br)c1C)C1CC1 (stereo not drawn) [1.0119]
3.35^[a]	COC(=O)C(NC(=O)c1sc(Br)c(Cl)c1C)C1CC1 (stereo not drawn) [1.0120]
3.43^[a]	COC(=O)C(NC(=O)c1sc(Br)c(Br)c1F)C1CC1 (stereo not drawn) [1.0121]
3.37^[a]	CCOC(=O)C(C)NC(=O)c1sc(Cl)c(Br)c1C (stereo not drawn) [1.0122]
1.48^[a]	COC(=O)C(Cc1c[nH]cn1)NC(=O)c1sc(Cl)c(Br)c1C (stereo not drawn) [1.0124]
3.44^[a]	CCOC(=O)C(COC)NC(=O)c1sc(Cl)c(Br)c1C (stereo not drawn) [1.0125]
3.33^[a]	CCOC(=O)C(Cc1ccc(O)cc1)NC(=O)c1sc(Cl)c(Br)c1C (stereo not drawn) [1.0126]
1,66^[a]	COC(=O)[C@H](CCCNC(=N)N)NC(=O)c1sc(Cl)c(Br)c1C [1.0127]
4.15^[a]	CCOC(=O)C(Cc1c[nH]c2ccccc12)NC(=O)c1sc(Cl)c(Br)c1C (stereo not drawn) [1.0128]
1.47^[a]	COC(=O)C(Cc1c[nH]cn1)NC(=O)c1sc(Br)c(Cl)c1C (stereo not drawn) [1.0129]
3.29^[a]	CCOC(=O)C(Cc1ccc(O)cc1)NC(=O)c1sc(Br)c(Cl)c1C (stereo not drawn) [1.0130]
1.71^[a]	COC(=O)[C@H](CCCNC(=N)N)NC(=O)c1sc(Br)c(Cl)c1C [1.0131]
